This assay concerns the target Wild type FGFR2 (Homo sapiens (Human), UniProt P21802). Nature of the assay: FGFR2 kinase assay (fluorescence-based microfluidic mobility shift assay). It counts as biochemical. The note with it: wild type FGFR2 0.06 nM, 100 μM ATP, 80 minutes at room temperature.

Consider 26 molecules from patent US11345681B1, “Inhibitors of fibroblast growth factor receptor kinases” (Kinnate Biopharma Inc., priority 2020, dated 2022).

Molecules are shown by their SMILES. pIC50: −log10 of the molar value.

Sequence of Wild type FGFR2 (P21802 22-821): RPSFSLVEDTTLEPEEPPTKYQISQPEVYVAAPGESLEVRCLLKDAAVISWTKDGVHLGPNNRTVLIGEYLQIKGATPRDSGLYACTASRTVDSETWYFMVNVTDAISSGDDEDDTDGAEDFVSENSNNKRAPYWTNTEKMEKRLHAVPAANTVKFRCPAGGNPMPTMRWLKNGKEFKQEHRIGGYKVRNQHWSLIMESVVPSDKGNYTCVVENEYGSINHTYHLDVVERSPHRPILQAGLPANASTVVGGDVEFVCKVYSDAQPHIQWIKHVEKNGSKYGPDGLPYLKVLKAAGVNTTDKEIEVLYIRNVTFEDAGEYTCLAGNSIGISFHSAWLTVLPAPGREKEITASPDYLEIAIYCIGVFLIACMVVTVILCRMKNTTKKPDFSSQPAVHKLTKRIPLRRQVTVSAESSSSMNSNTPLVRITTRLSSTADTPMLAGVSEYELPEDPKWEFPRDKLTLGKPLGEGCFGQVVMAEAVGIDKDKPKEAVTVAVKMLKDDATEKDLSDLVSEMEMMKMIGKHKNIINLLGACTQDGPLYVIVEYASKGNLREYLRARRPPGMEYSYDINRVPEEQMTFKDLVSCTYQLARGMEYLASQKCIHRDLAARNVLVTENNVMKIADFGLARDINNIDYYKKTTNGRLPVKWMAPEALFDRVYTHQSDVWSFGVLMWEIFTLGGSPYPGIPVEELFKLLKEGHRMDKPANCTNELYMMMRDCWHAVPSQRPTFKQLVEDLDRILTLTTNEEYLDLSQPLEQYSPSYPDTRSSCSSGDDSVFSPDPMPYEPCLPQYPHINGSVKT

Turning to `C=CC(=O)N1C[C@@H](n2nc(C#Cc3c(F)cc4[nH]c(C5CC5)nc4c3F)c(C(N)=O)c2NC)C[C@@H]1COC` [Example 61, 3-[2-(2-Cyclopropyl-4,6-difluoro-1H-1,3-benzodiazol-5-yl)ethynyl]-1-[(3S,5R)-5-(methoxymethyl)-1-(prop-2-enoyl)pyrrolidin-3-yl]-5-(methylamino)pyrazole-4-carboxamide], where the note is “class symbols”, the negative-log IC50 (pIC50) was no less than 7.00. On the same count and under the same terms, the same measure for `C=CC(=O)N1C[C@@H](n2nc(C#Cc3cccc4cncn34)c(C(N)=O)c2NC)C[C@@H]1COC` [Example 278, 3-(2-{Imidazo[1,5-a]pyridin-5-yl}ethynyl)-1-[(3S,5R)-5-(methoxymethyl)-1-(prop-2-enoyl)pyrrolidin-3-yl]-5-(methylamino)pyrazole-4-carboxamide]: no less than 7.00; for `C=CC(=O)N1C[C@@H](n2nc(C#Cc3cc4ncn(C5CC5)c4c(F)c3F)c(C(N)=O)c2NC)C[C@@H]1COC` [Example 151, 3-[2-(1-Cyclopropy-6,7-difluoro-1,3-benzodiazol-5-yl)ethynyl]-1-[(3S,5R)-5-(methoxymethyl)-1-(prop-2-enoyl)pyrrolidin-3-yl]-5-(methylamino)pyrazole-4-carboxamide]: no less than 7.00; for `C=CC(=O)N1C[C@@H](n2nc(C#Cc3ccc4c(ncn4C)c3F)c(C(N)=O)c2NC)C[C@@H]1COC` [Example 71, 1-((3S,5R)-1-Acryloyl-5-(methoxymethyl)pyrrolidin-3-yl)-3-((4-fluoro-1-methyl-1H-benzo[d]imidazol-5-yl)ethynyl)-5-(methylamino)-1H-pyrazole-4-carboxamide]: no less than 7.00. On the same count and under the same terms, the same measure for `C=CC(=O)N1C[C@@H](n2nc(C#Cc3cc4nc(C)[nH]c4cc3Cl)c(C(N)=O)c2NC)C[C@@H]1COC` [Example 98, 3-[2-(6-Chloro-2-methyl-1R-1,3-benzodiazol-5-yl)ethynyl]-1-[(3S,5R)-5-(methoxymethyl)-1-(prop-2-enoyl)pyrrolidin-3-yl]-5-(methylamino)pyrazole-4-carboxamid]: no less than 7.00; for `C=CC(=O)N1C[C@@H](n2nc(C#Cc3cc4nccn4cc3F)c(C(N)=O)c2NC)C[C@@H]1COC` [Example 132, 1-((3S,5R)-1-Acryloyl-5-(methoxymethyl)pyrrolidin-3-yl)-3-((6-fluoroimidazo[1,2-a]pyridin-7-yl)ethynyl)-5-(methylamino)-1H-pyrazole-4-carboxamide]: no less than 7.00. The same measure, in the same setting: the same measure for `C=CC(=O)N1C[C@@H](n2nc(C#Cc3c(F)cc4c(ncn4C4CC4)c3F)c(C(N)=O)c2NCCO)C[C@@H]1COC` [Example 251, 3-[2-(1-Cyclopropyl-4,6-difluoro-1,3-benzodiazol-5-yl)ethynyl]-5-[(2-hydroxyethyl)amino]-1-[(3S,5R)-5-(methoxymethyl)-1-(prop-2-enoyl)pyrrolidin-3-yl]pyrazole-4-carboxamide]: no less than 7.00; for `C=CC(=O)N1C[C@@H](n2nc(C#Cc3ccc4ncc(C)nc4c3)c(C(N)=O)c2NC)C[C@@H]1COC` [Example 72, 1-((3S,5R)-1-Acryloyl-5-(methoxymethyl)pyrrolidin-3-yl)-5-(methylamino)-3-((3-methylquinoxalin-6-yl)ethynyl)-1H-pyrazole-4-carboxamide]: no less than 7.00; for `C=CC(=O)N1CC[C@H](n2nc(C#Cc3ccc4nc(C)[nH]c4c3)c(C(N)=O)c2NC)C1` [Example 2, (S)-1-(1-acryloylpyrrolidin-3-yl)-3-((2-methyl-1H-benzo[d]imidazol-6-yl)ethynyl)-5-(methylamino)-1H-pyrazole-4-carboxamide]: no less than 7.00. `C=CC(=O)N1C[C@@H](n2nc(C#Cc3cc4c(cc3Cl)ncn4[C@H]3CC3(F)F)c(C(N)=O)c2NC)C[C@@H]1COC` (single isomer, unassigned) [Example 289]: the negative logarithm of the IC50 (pIC50) (given as numeric bound) was less than 6.30.

With `C=CC(=O)N1C[C@@H](n2nc(C#Cc3cc4nc5n(c4cc3Cl)CCC5)c(C(N)=O)c2NC)C[C@@H]1COC` [Example 285, 1-((3S,5R)-1-Acryloyl-5-(methoxymethyl)pyrrolidin-3-yl)-3-((7-chloro-2,3-dihydro-1H-benzo[d]pyrrolo[1,2-a]imidazol-6-yl)ethynyl)-5-(methylamino)-1H-pyrazole-4-carboxamide], the pIC50 (class symbols) was no less than 7.00. On the same count and under the same terms, the same measure for `C=CC(=O)N1C[C@@H](n2nc(C#Cc3ccc4c(ncn4CC)c3F)c(C(N)=O)c2NC)C[C@@H]1COC` [Example 68, 1-((3S,5R)-1-Acryloyl-5-(methoxymethyl)pyrrolidin-3-yl)-3-((1-ethyl-4-fluoro-1H-benzo[d]imidazol-5-yl)ethynyl)-5-(methylamino)-1H-pyrazole-4-carboxamide]: no less than 7.00. On the same count and under the same terms, the figure for `C=CC(=O)N1C[C@@H](n2nc(C#Cc3cc4ncn(C5CC5)c4c(F)c3F)c(C(N)=O)c2NC)C[C@@H]1C` [Example 158, 3-[2-(1-cyclopropyl-6,7-difluoro-1,3-benzodiazol-5-yl)ethynyl]-1-[(3S,5S)-5-methyl-1-(prop-2-enoyl)pyrrolidin-3-yl]-5-(methylamino)pyrazole-4-carboxamide] is no less than 7.00; for `C=CC(=O)N1C[C@@H](n2nc(C#Cc3c(F)cc4c(ncn4CC)c3F)c(C(N)=O)c2NC)C[C@@H]1COC` [Example 29, 1-((3S,5R)-1-acryloyl-5-(methoxymethyl)pyrrolidin-3-yl)-3-((1-ethyl-4,6-difluoro-1H-benzo[d]imidazol-5-yl)ethynyl)-5-(methylamino)-1H-pyrazole-4-carboxamide] it is no less than 7.00; for `C=CC(=O)N1C[C@@H](n2nc(C#Cc3c(F)cc4c(ncn4C4CC4)c3F)c(C(N)=O)c2NC)C[C@H]1C` [Example 165, 3-[2-(1-Cyclopropyl-4,6-difluoro-1,3-benzodiazol-5-yl)ethynyl]-1-[(3S,5R)-5-methyl-1-(prop-2-enoyl)pyrrolidin-3-yl]-5-(methylamino)pyrazole-4-carboxamide] it is no less than 7.00. Same read-out and setting: the figure for `CC#CC(=O)N1C[C@@H](n2nc(C#Cc3c(F)cc4c(ncn4C4CC4)c3F)c(C(N)=O)c2NC)C[C@@H]1COC` [Example 185, 1-[(3S,5R)-1-(But-2-ynoyl)-5-(methoxymethyl)pyrrolidin-3-yl]-3-[2-(1-cyclopropyl-4,6-difluoro-1,3-benzodiazol-5-yl)ethynyl]-5-(methylamino)pyrazole-4-carboxamide] is no less than 7.00; for `C=CC(=O)N1C[C@@H](n2nc(C#Cc3c(F)cc4c(nc(C)n4C)c3F)c(C(N)=O)c2NC)C[C@@H]1COC` [Example 18, 1-((3S,5R)-1-acryloyl-5-(methoxymethyl)pyrrolidin-3-yl)-3-((4,6-difluoro-1,2-dimethyl-1H-benzo[d]imidazol-5-yl)ethynyl)-5-(methylamino)-1H-pyrazole-4-carboxamide] it is no less than 7.00. `C=CC(=O)N1C[C@@H](n2nc(C#Cc3ccc4c(C)ccnc4c3)c(C(N)=O)c2NC)C[C@@H]1COC` [Example 74, 1-[(3S,5R)-5-(Methoxymethyl)-1-(prop-2-enoyl)pyrrolidin-3-yl]-5-(methylamino)-3-[2-(4-methylquinolin-7-yl)ethynyl]pyrazole-4-carboxamide]: under “class symbols”, the pIC50 was no less than 7.00. The same measure, in the same setting: the figure for `C=CC(=O)N1C[C@@H](n2nc(C#Cc3nc4ccccc4s3)c(C(N)=O)c2NC)C[C@@H]1COC` [Example 102, 3-[2-(1,3-Benzothiazol-2-yl)ethynyl]-1-[(3S,5R)-5-(methoxymethyl)-1-(prop-2-enoyl)pyrrolidin-3-yl]-5-(methylamino)pyrazole-4-carboxamide] is no less than 7.00. Same read-out and setting: the same measure for `C=CC(=O)N1C[C@@H](n2nc(C#Cc3cc4nc(C)n(C5CC5)c4cc3F)c(C(N)=O)c2N)C[C@@H]1COC` [Example 206, 5-Amino-3-[2-(1-cyclopropyl-6-fluoro-2-methyl-1,3-benzodiazol-5-yl)ethynyl]-1-[(3S,5R)-5-(methoxymethyl)-1-(prop-2-enoyl)pyrrolidin-3-yl]pyrazole-4-carboxamide]: no less than 7.00; for `C=CC(=O)N1C[C@@H](n2nc(C#Cc3cc4ncc(F)cc4cc3F)c(C(N)=O)c2NC)C[C@@H]1COC` [Example 264, 3-[2-(3,6-Difluoroquinolin-7-yl)ethynyl]-1-[(3S,5R)-5-(methoxymethyl)-1-(prop-2-enoyl)pyrrolidin-3-yl]-5-(methylamino)pyrazole-4-carboxamide]: no less than 7.00. Same read-out and setting: the figure for `C=CC(=O)N1CC[C@H](n2nc(C#Cc3cc4ncn(C)c4cc3Cl)c(C(N)=O)c2NC)C1` [Example 144, 3-[2-(6-Chloro-1-methyl-1,3-benzodiazol-5-yl)ethynyl]-5-(methylamino)-1-[(3S)-1-(prop-2-enoyl)pyrrolidin-3-yl]pyrazole-4-carboxamide] is no less than 7.00; for `C=CC(=O)N1C[C@@H](n2nc(C#Cc3cc4ncn(C5CC5)c4cc3Cl)c(C(N)=O)c2N)C[C@@H]1COC` [Example 200, 5-Amino-3-[2-(6-chloro-1-cyclopropyl-1,3-benzodiazol-5-yl)ethynyl]-1-[(3S,5R)-5-(methoxymethyl)-1-(prop-2-enoyl)pyrrolidin-3-yl]pyrazole-4-carboxamide] it is no less than 7.00. With `C=CC(=O)N1CC(n2nc(C#Cc3cc4ncn(C5CC5)c4cc3Cl)c(C(N)=O)c2N)C1` [Example 208, 5-Amino-3-[2-(6-chloro-1-cyclopropyl-1,3-benzodiazol-5-yl)ethynyl]-1-[1-(prop-2-enoyl)azetidin-3-yl]pyrazole-4-carboxamide], the pIC50 (class symbols) was no less than 7.00. `C=CC(=O)N1C[C@@H](n2nc(C#Cc3cc4c(cc3Cl)ncn4[C@@H]3CC3(F)F)c(C(N)=O)c2NC)C[C@@H]1COC` (single isomer, unassigned) [Example 288]: where the note is “class symbols”, the pIC50 was no less than 7.00. The same measure, in the same setting: the figure for `C=CC(=O)N1C[C@@H](n2nc(C#Cc3cc4ncoc4cc3F)c(C(N)=O)c2NC)C[C@@H]1COC` [Example 115, 3-[2-(6-Fluoro-1,3-benzoxazol-5-yl)ethynyl]-1-[(3S,5R)-5-(methoxymethyl)-1-(prop-2-enoyl)pyrrolidin-3-yl]-5-(methylamino)pyrazole-4-carboxamide] is no less than 7.00.
